Source: article PMC5218480 (PLoS ONE, 2017)

Test system: MV-4-11 cells
Test: Gene expression microarray analysis (Affymetrix PrimeView) and GSEA
Format: cell-based, human
Design: RFU PODN (11730768_x_at) / Fold change /veh PODN (11730768_x_at) / RFU LINC00158 (11744669_a_at) / Fold change /veh LINC00158 (11744669_a_at) / RFU DUSP10 (11751237_a_at) / Fold change /veh DUSP10 (11751237_a_at) / RFU ID3 (11757404_x_at) / Fold change /veh ID3 (11757404_x_at) / RFU PLEKHG5 (11737974_s_at) / Fold change /veh PLEKHG5 (11737974_s_at) / RFU LRRC4B (11730491_at) / Fold change /veh LRRC4B (11730491_at) / RFU GIMAP4 (11747438_a_at) / Fold change /veh GIMAP4 (11747438_a_at) / RFU KRT8 (11758183_x_at) / Fold change /veh KRT8 (11758183_x_at) / RFU CNN1 (11734310_a_at) / Fold change /veh CNN1 (11734310_a_at) / RFU VPS37D (11726825_at) / Fold change /veh VPS37D (11726825_at) / RFU C10orf10 (11716522_x_at) / Fold change /veh C10orf10 (11716522_x_at) / RFU KIR2DL2 /// KIR2DL4 /// KIR2DL5A /// KIR2DL5B /// KIR2DS1 /// KIR2DS2 /// KIR2DS3 /// KIR2DS4 /// KIR3DL3 /// KIR3DL3 /// KIR3DS1 (11738374_at) / Fold change /veh KIR2DL2 /// KIR2DL4 /// KIR2DL5A /// KIR2DL5B /// KIR2DS1 /// KIR2DS2 /// KIR2DS3 /// KIR2DS4 /// KIR3DL3 /// KIR3DL3 /// KIR3DS1 (11738374_at) / RFU C1QL1 (11718748_at) / Fold change /veh C1QL1 (11718748_at) / RFU TMPRSS4 (11747572_a_at) / Fold change /veh TMPRSS4 (11747572_a_at) / RFU HAMP (11756126_x_at) / Fold change /veh HAMP (11756126_x_at) / RFU RNFT2 (11725882_a_at) / Fold change /veh RNFT2 (11725882_a_at) / RFU NR4A2 (11747474_a_at) / Fold change /veh NR4A2 (11747474_a_at) / RFU ABCC12 (11746883_a_at) / Fold change /veh ABCC12 (11746883_a_at) / RFU TMEM136 (11760407_x_at) / Fold change /veh TMEM136 (11760407_x_at) / RFU CLDN22 /// WWC2 (11732394_at) / Fold change /veh CLDN22 /// WWC2 (11732394_at) / RFU HLA-DPB1 (11760878_x_at) / Fold change /veh HLA-DPB1 (11760878_x_at) / RFU SPINT1 (11716480_a_at) / Fold change /veh SPINT1 (11716480_a_at) / RFU GAP43 (11754022_s_at) / Fold change /veh GAP43 (11754022_s_at) / RFU A4GNT (11735810_at) / Fold change /veh A4GNT (11735810_at) / RFU PRB3 (11715151_x_at) / Fold change /veh PRB3 (11715151_x_at) / RFU TUBB4B (11761932_at) / Fold change /veh TUBB4B (11761932_at) / RFU CAPN14 (11732068_a_at) / Fold change /veh CAPN14 (11732068_a_at) / RFU TMCC2 (11721928_a_at) / Fold change /veh TMCC2 (11721928_a_at) / RFU IRGQ (11745062_a_at) / Fold change /veh IRGQ (11745062_a_at) / RFU FAM174B (11720279_a_at) / Fold change /veh FAM174B (11720279_a_at) / RFU TMPRSS4 (11748680_a_at) / Fold change /veh TMPRSS4 (11748680_a_at) / RFU FAM212B (11763350_a_at) / Fold change /veh FAM212B (11763350_a_at) / RFU PLEKHG5 (11743358_a_at) / Fold change /veh PLEKHG5 (11743358_a_at) / RFU ZSCAN30 (11745921_a_at) / Fold change /veh ZSCAN30 (11745921_a_at) / RFU CMKLR1 (11741424_a_at) / Fold change /veh CMKLR1 (11741424_a_at) / RFU LOC101060620 /// MAPK8IP1 (11723275_at) / Fold change /veh LOC101060620 /// MAPK8IP1 (11723275_at) / RFU SPTSSB (11747773_x_at) / Fold change /veh SPTSSB (11747773_x_at) / RFU PRSS12 (11739890_at) / Fold change /veh PRSS12 (11739890_at) / RFU BIN1 (11741810_x_at) / Fold change /veh BIN1 (11741810_x_at) / RFU WNT11 (11732464_a_at) / Fold change /veh WNT11 (11732464_a_at) / RFU C10orf10 (11716521_a_at) / Fold change /veh C10orf10 (11716521_a_at) / RFU C5orf56 (11738089_at) / Fold change /veh C5orf56 (11738089_at) / RFU CYB561 (11721691_x_at) / Fold change /veh CYB561 (11721691_x_at) / RFU ANKRD19P (11752326_a_at) / Fold change /veh ANKRD19P (11752326_a_at) / RFU OR2T12 /// OR2T33 /// OR2T8 (11738714_s_at) / Fold change /veh OR2T12 /// OR2T33 /// OR2T8 (11738714_s_at) / RFU VCAN (11748164_a_at) / Fold change /veh VCAN (11748164_a_at) / RFU JSRP1 (11732532_at) / Fold change /veh JSRP1 (11732532_at) / RFU KRTAP10-11 (11738290_x_at) / Fold change /veh KRTAP10-11 (11738290_x_at) / RFU MYO3A (11730013_a_at) / Fold change /veh MYO3A (11730013_a_at) / RFU EBF3 (11725865_a_at) / Fold change /veh EBF3 (11725865_a_at) / RFU CAMK2N1 (11719241_x_at) / Fold change /veh CAMK2N1 (11719241_x_at) / RFU C5orf56 (11738088_a_at) / Fold change /veh C5orf56 (11738088_a_at) / RFU OLFML3 (11715873_a_at) / Fold change /veh OLFML3 (11715873_a_at) / RFU LOC100653217 /// NTM (11731650_a_at) / Fold change /veh LOC100653217 /// NTM (11731650_a_at) / RFU MAPK11 (11762145_a_at) / Fold change /veh MAPK11 (11762145_a_at) / RFU FIZ1 (11724087_x_at) / Fold change /veh FIZ1 (11724087_x_at) / RFU OASL (11726364_x_at) / Fold change /veh OASL (11726364_x_at) / RFU SOX15 (11748057_x_at) / Fold change /veh SOX15 (11748057_x_at) / RFU CD79A (11719716_a_at) / Fold change /veh CD79A (11719716_a_at) / RFU HIST1H1D (11736915_at) / Fold change /veh HIST1H1D (11736915_at) / RFU CASKIN2 (11723855_a_at) / Fold change /veh CASKIN2 (11723855_a_at) / RFU LOC730098 (11760151_x_at) / Fold change /veh LOC730098 (11760151_x_at) / RFU OR4N2 (11742367_at) / Fold change /veh OR4N2 (11742367_at) / RFU PRRT2 (11749266_a_at) / Fold change /veh PRRT2 (11749266_a_at) / RFU SNX32 (11753110_a_at) / Fold change /veh SNX32 (11753110_a_at) / RFU CDHR5 (11726645_a_at) / Fold change /veh CDHR5 (11726645_a_at) / RFU RCAN1 (11760418_a_at) / Fold change /veh RCAN1 (11760418_a_at) / RFU FAM167A (11723789_a_at) / Fold change /veh FAM167A (11723789_a_at) / RFU FAM26E (11764081_at) / Fold change /veh FAM26E (11764081_at) / RFU ISYNA1 (11749810_s_at) / Fold change /veh ISYNA1 (11749810_s_at) / RFU ACY1 (11761880_at) / Fold change /veh ACY1 (11761880_at) / RFU 11764098_at / Fold change /veh 11764098_at / RFU SAMD14 (11745864_x_at) / Fold change /veh SAMD14 (11745864_x_at) / RFU NPB (11741838_a_at) / Fold change /veh NPB (11741838_a_at) / RFU TMPRSS6 (11731388_a_at) / Fold change /veh TMPRSS6 (11731388_a_at) / RFU KRTAP10-2 (11738614_at) / Fold change /veh KRTAP10-2 (11738614_at) / RFU ARHGAP8 /// PRR5-ARHGAP8 (11727945_x_at) / Fold change /veh ARHGAP8 /// PRR5-ARHGAP8 (11727945_x_at) / RFU KRTAP5-7 /// NADSYN1 (11734609_at) / Fold change /veh KRTAP5-7 /// NADSYN1 (11734609_at) / RFU RASL12 (11751679_a_at) / Fold change /veh RASL12 (11751679_a_at) / RFU CDKN2B (11736163_a_at) / Fold change /veh CDKN2B (11736163_a_at) / RFU PRF1 (11729649_at) / Fold change /veh PRF1 (11729649_at) / RFU, ZNF638 /// ZNF638-IT1 / Fold change vs veh, ZNF638 /// ZNF638-IT1 / RFU, PANK3 / Fold change vs veh, PANK3 / RFU, SH3YL1 / Fold change vs veh, SH3YL1 / RFU, ZEB2 / Fold change vs veh, ZEB2 / RFU, NRIP1 / Fold change vs veh, NRIP1 / RFU, PTTG1IP / Fold change vs veh, PTTG1IP / RFU, CAPN2 / Fold change vs veh, CAPN2 / RFU, MED14 / Fold change vs veh, MED14 / RFU, SNORA58 / Fold change vs veh, SNORA58 / RFU, C1orf63 / Fold change vs veh, C1orf63 / RFU, LRRFIP1 / Fold change vs veh, LRRFIP1 / RFU, NDUFAF7 / Fold change vs veh, NDUFAF7 / RFU, SLC12A2 / Fold change vs veh, SLC12A2 / RFU, IBTK / Fold change vs veh, IBTK / RFU, ESF1 / Fold change vs veh, ESF1 / Fold change vs veh, TMEM50B / RFU, TAOK1 / Fold change vs veh, TAOK1 / RFU, ACBD3 / Fold change vs veh, ACBD3 / RFU, TMA16 / Fold change vs veh, TMA16 / RFU, RWDD3 / Fold change vs veh, RWDD3 / RFU, BCAT1 / Fold change vs veh, BCAT1 / RFU, EDEM3 / Fold change vs veh, EDEM3 / RFU, TMEM33 / Fold change vs veh, TMEM33 / RFU, WDR75 / Fold change vs veh, WDR75 / RFU, AHCTF1 / Fold change vs veh, AHCTF1 / RFU, TFRC / Fold change vs veh, TFRC / RFU, ZDHHC17 / Fold change vs veh, ZDHHC17 / RFU, NOM1 / Fold change vs veh, NOM1 / RFU, ARL8B / Fold change vs veh, ARL8B / RFU, ZBTB11 / Fold change vs veh, ZBTB11 / RFU, TAMM41 / Fold change vs veh, TAMM41 / RFU, KIAA1704 /// LOC100996395 / Fold change vs veh, KIAA1704 /// LOC100996395 / RFU, ING1 / Fold change vs veh, ING1 / RFU, TRMT61B / Fold change vs veh, TRMT61B / RFU, FUBP3 / Fold change vs veh, FUBP3 / RFU, TP53 / Fold change vs veh, TP53 / RFU, TNKS2 / Fold change vs veh, TNKS2 / RFU, ZFP14 / Fold change vs veh, ZFP14 / RFU, ACTR2 / Fold change vs veh, ACTR2 / RFU, PPP3R1 / Fold change vs veh, PPP3R1 / RFU, PIK3R1 / Fold change vs veh, PIK3R1 / RFU, HNRNPA1 / Fold change vs veh, HNRNPA1 / RFU, RNF170 / Fold change vs veh, RNF170 / RFU, ZNF28 / Fold change vs veh, ZNF28 / RFU, RNGTT / Fold change vs veh, RNGTT / RFU, OGT / Fold change vs veh, OGT / RFU, BRD1 / Fold change vs veh, BRD1 / RFU, MARS / Fold change vs veh, MARS / RFU, ZNF655 / Fold change vs veh, ZNF655 / RFU, FAHD1 / Fold change vs veh, FAHD1 / RFU, BDP1 / Fold change vs veh, BDP1 / RFU, LRRCC1 / Fold change vs veh, LRRCC1 / RFU, ARID1A / Fold change vs veh, ARID1A / RFU, ZNF146 / Fold change vs veh, ZNF146 / RFU, ZNF330 / Fold change vs veh, ZNF330 / RFU, GPN3 / Fold change vs veh, GPN3 / RFU, C9orf123 / Fold change vs veh, C9orf123 / RFU, N4BP2L2 / Fold change vs veh, N4BP2L2 / RFU, ARFIP1 / Fold change vs veh, ARFIP1 / RFU, FAM179B / Fold change vs veh, FAM179B / RFU, BCL10 / Fold change vs veh, BCL10 / RFU, UHRF1BP1L / Fold change vs veh, UHRF1BP1L / RFU, BET1 / Fold change vs veh, BET1 / RFU, CNOT2 / Fold change vs veh, CNOT2 / RFU, ZNF268 / Fold change vs veh, ZNF268 / Fold change vs veh, ZNF507 / RFU, DGCR2 / Fold change vs veh, DGCR2 / RFU, WDSUB1 / Fold change vs veh, WDSUB1 / Fold change vs veh, HSP90B1 /// MIR3652 / RFU, ADSS / Fold change vs veh, ADSS / RFU, GK / Fold change vs veh, GK / RFU, ZNF148 / Fold change vs veh, ZNF148 / RFU, TAF9 / Fold change vs veh, TAF9 / RFU, SLC1A5 / Fold change vs veh, SLC1A5 / RFU, SLMO2 / Fold change vs veh, SLMO2 / RFU, ABCC4 / Fold change vs veh, ABCC4 / RFU, LOC101060439 /// RAP1B / Fold change vs veh, LOC101060439 /// RAP1B / RFU, RFX7 / Fold change vs veh, RFX7 / RFU, GTPBP10 / Fold change vs veh, GTPBP10 / RFU, CNEP1R1 / Fold change vs veh, CNEP1R1 / RFU, BIVM-ERCC5 /// ERCC5 / Fold change vs veh, BIVM-ERCC5 /// ERCC5 / RFU, ILF3 / Fold change vs veh, ILF3 / RFU 11762660_at / Fold change /veh 11762660_at / RFU VCAN (11757783_s_at) / Fold change /veh VCAN (11757783_s_at) / RFU DDX43 (11728927_at) / Fold change /veh DDX43 (11728927_at) / RFU KRT8 (11758188_x_at) / Fold change /veh KRT8 (11758188_x_at) / RFU NKD1 (11759106_at) / Fold change /veh NKD1 (11759106_at) / RFU SRD5A1 (11742802_a_at) / Fold change /veh SRD5A1 (11742802_a_at) / RFU TPSAB1 /// TPSB2 (11721975_s_at) / Fold change /veh TPSAB1 /// TPSB2 (11721975_s_at) / RFU GSTM3 (11746129_a_at) / Fold change /veh GSTM3 (11746129_a_at) / RFU IL23R (11737362_x_at) / Fold change /veh IL23R (11737362_x_at) / RFU TMEM51 (11727254_a_at) / Fold change /veh TMEM51 (11727254_a_at) / RFU PIWIL2 (11732686_x_at) / Fold change /veh PIWIL2 (11732686_x_at) / RFU ORM1 (11744905_x_at) / Fold change /veh ORM1 (11744905_x_at) / RFU CCDC152 (11743942_at) / Fold change /veh CCDC152 (11743942_at) / RFU ECM1 (11717891_a_at) / Fold change /veh ECM1 (11717891_a_at) / RFU IL23R (11748794_a_at) / Fold change /veh IL23R (11748794_a_at) / RFU TNFAIP8L3 (11732012_x_at) / Fold change /veh TNFAIP8L3 (11732012_x_at) / RFU MBOAT4 (11741988_at) / Fold change /veh MBOAT4 (11741988_at) / RFU 11764193_at / Fold change /veh 11764193_at / RFU TMEM53 (11763286_at) / Fold change /veh TMEM53 (11763286_at) / RFU MAGEB2 (11727129_at) / Fold change /veh MAGEB2 (11727129_at) / RFU TMEM200A (11744735_a_at) / Fold change /veh TMEM200A (11744735_a_at) / RFU CCDC152 (11751479_a_at) / Fold change /veh CCDC152 (11751479_a_at) / RFU FAM211A (11726209_a_at) / Fold change /veh FAM211A (11726209_a_at) / RFU RGS16 (11746705_a_at) / Fold change /veh RGS16 (11746705_a_at) / RFU VCAN (11755009_s_at) / Fold change /veh VCAN (11755009_s_at) / RFU RHOB (11743442_s_at) / Fold change /veh RHOB (11743442_s_at) / RFU RGS16 (11720943_a_at) / Fold change /veh RGS16 (11720943_a_at) / RFU RGS16 (11720944_at) / Fold change /veh RGS16 (11720944_at) / RFU, VPS4B / Fold change vs veh, VPS4B / RFU, CREB1 / Fold change vs veh, CREB1 / RFU, DNAJC13 / Fold change vs veh, DNAJC13 / RFU, GNAQ / Fold change vs veh, GNAQ / RFU, CDK5R1 / Fold change vs veh, CDK5R1 / RFU, ZRANB3 / Fold change vs veh, ZRANB3 / RFU, CUL4A / Fold change vs veh, CUL4A / RFU, CCNY / Fold change vs veh, CCNY / RFU, UFL1 / Fold change vs veh, UFL1 / RFU, COG3 / Fold change vs veh, COG3 / RFU, DIAPH2 / Fold change vs veh, DIAPH2 / RFU, SKA2 / Fold change vs veh, SKA2 / RFU, AFF3 / Fold change vs veh, AFF3 / RFU, LMF1 / Fold change vs veh, LMF1 / RFU, IPO11 / Fold change vs veh, IPO11 / RFU, DFFB / Fold change vs veh, DFFB / RFU, FOXP1 / Fold change vs veh, FOXP1 / RFU, CARD8 / Fold change vs veh, CARD8 / RFU, STRN3 / Fold change vs veh, STRN3 / RFU, ADK / Fold change vs veh, ADK / RFU, RASSF2 / Fold change vs veh, RASSF2 / RFU, WIPF1 / Fold change vs veh, WIPF1 / RFU, LARP1B / Fold change vs veh, LARP1B / RFU, RASA1 / Fold change vs veh, RASA1 / RFU, RB1 / Fold change vs veh, RB1 / RFU, PPFIA1 / Fold change vs veh, PPFIA1 / RFU, MAT2A / Fold change vs veh, MAT2A / RFU, CCT5 / Fold change vs veh, CCT5 / RFU, WDR92 / Fold change vs veh, WDR92 / RFU, CUX1 / Fold change vs veh, CUX1 / RFU, TTC7A / Fold change vs veh, TTC7A / RFU, TMEM135 / Fold change vs veh, TMEM135 / RFU, DEPTOR / Fold change vs veh, DEPTOR / RFU, CPM / Fold change vs veh, CPM / RFU, DNAJB6 / Fold change vs veh, DNAJB6 / RFU, CACNA2D3 / Fold change vs veh, CACNA2D3 / RFU, DTX4 / Fold change vs veh, DTX4 / RFU, TFCP2 / Fold change vs veh, TFCP2 / RFU, GMCL1 /// GMCL1P1 / Fold change vs veh, GMCL1 /// GMCL1P1 / RFU, AEBP2 / Fold change vs veh, AEBP2 / RFU, SNHG1 /// SNORD22 /// SNORD25 /// SNORD26 /// SNORD27 /// SNORD28 /// SNORD29 /// SNORD31 / Fold change vs veh, SNHG1 /// SNORD22 /// SNORD25 /// SNORD26 /// SNORD27 /// SNORD28 /// SNORD29 /// SNORD31 / Fold change (Aza/veh), C12orf56 (ProbeSet 11735607_a_at) / Fold change (ACY-1035/veh), C12orf56 (ProbeSet 11735607_a_at) / Fold change (Aza/veh), FGFR1OP (ProbeSet 11751329_s_at) / Fold change (ACY-1035/veh), FGFR1OP (ProbeSet 11751329_s_at) / Fold change (Aza/veh), VPS36 (ProbeSet 11739960_a_at) / Fold change (ACY-1035/veh), VPS36 (ProbeSet 11739960_a_at) / RFU SYPL1 (11715823_x_at) / Fold change /veh SYPL1 (11715823_x_at) / RFU IGFBP7 (11715501_s_at) / Fold change /veh IGFBP7 (11715501_s_at) / RFU REEP3 (11722064_at) / Fold change /veh REEP3 (11722064_at) / RFU IGLL1 (11728026_x_at) / Fold change /veh IGLL1 (11728026_x_at): dose or concentration left out as unconfirmed
Details: MV-4-11 cells, 48 hours

Nc1ccc(-c2cccs2)cc1NC(=O)c1ccc2c(c1)cc(C1CC1)n2CCN1CCOCC1 [ACY-1035]
Fold change /veh TMPRSS6 (11731388_a_at): 1.10
